Experimental data published in US20180214463A1, “USE OF PHYTIC ACID OR THE SALTS THEREOF, ALONE OR COMBINED WITH B6 VITAMERS, FOR PREVENTING THE FORMATION OF ADVANCED GLYCATION END-PRODUCT” (UNIVERSITAT DE LES ILLES BALEARS, priority 2015, published 2018).

Columns and labels:
diabetic patients = test: Clinical trial of phytate (phytin) in diabetic patients: plasma HbA1c and AGEs, urinary phytate; type: in vivo, human
formation of AGEs = test: In vitro formation of AGEs (ribose, arginine, lysine, Fe3+; fluorescence at 7 days); type: biochemical; conditions: 37° C., vs control without inhibitors
Experimental: In an in vitro study, the inhibiting effect of phytate alone or in combination with pyridoxamine on the formation of AGEs was compared (see FIG. 2). […] In these studies, the formation of AGEs was induced by incubating a reaction mixture containing ribose (200 mM) (taken as the model reducing sugar), 1 mM arginine, 2 mM lysine (as glycation targets), and 2 μM Fe^3 (as a glycation catalyzer) with various concentrations of phytate and pyridoxamine alone or in combination at 37° C. for 7 days (in a 0.2 M phosphate buffer). The quantity of AGEs present at 7 days was determined by fluorescence.

Row | SMILES | decrease in plasma AGEs (diabetic patients; 1,140 mg phytate (as phytin) daily for 3 months, 33 diabetic patients, p<0.001) [%] | decrease in plasma glycated hemoglobin (HbA1c) (diabetic patients; 1,140 mg phytate (as phytin) daily for 3 months, 33 diabetic patients, p=0.017) [%] | increase in the urinary excretion of phytate (diabetic patients; 1,140 mg phytate (as phytin) daily for 3 months, p=0.026) [%] | plasma levels of HbA1c and AGEs after withdrawal (diabetic patients; three months without phytate, after three months of consuming it) | inhibition of the formation of AGEs (formation of AGEs; 1 μM inhibitor alone) [%] | inhibition of the formation of AGEs (formation of AGEs; 2 μM inhibitor alone) [%] | inhibition of the formation of AGEs (formation of AGEs; 2.5 μM inhibitor alone) [%]
1 | O=P(O)(O)O[C@H]1[C@H](OP(=O)(O)O)[C@@H](OP(=O)(O)O)[C@H](OP(=O)(O)O)[C@@H](OP(=O)(O)O)[C@H]1OP(=O)(O)O [phytate, myo-inositol-hexaphosphate] | ~25.1 | ~3.9 | 33.6 | returning to levels similar to the baselines | 12.7 | 19.9 | 
2 | Cc1ncc(CO)c(CN)c1O [pyridoxamine] |  |  |  |  | 17.5 |  | 28.2
